Measurements from ChEMBL document CHEMBL1144314, “Synthesis and antibacterial activity of 1-[1,2,4-triazol-3-yl] and 1-[1,3,4-thiadiazol-2-yl]-3-methylthio-6,7-dihydrobenzo[c]thiophen-4(5H)ones” (2005).

What was measured:
Assay type in all cases: functional
Bacillus cereus = experiment: Antimicrobial activity against Bacillus cereus was determined
Bacillus subtilis = experiment: Antimicrobial activity of the compound against Bacillus subtilis was determined
Staphylococcus aureus = experiment: Antimicrobial activity of the compound against Staphylococcus aureus was determined
Pseudomonas aeruginosa = experiment: Antimicrobial activity against Pseudomonas aeruginosa was determined
[1] = test system: Staphylococcus epidermidis; experiment: Antimicrobial activity against Staphylococcus epidermidis was determined
Candida albicans = experiment: Antimicrobial activity against Candida albicans was determined
Aspergillus niger = experiment: Antimicrobial activity against Aspergillus niger was determined

| Compound | Zone of inhibition (Bacillus subtilis) [mm] | Zone of inhibition (Staphylococcus aureus) [mm] | Zone of inhibition [1] [mm] | Zone of inhibition (Candida albicans) [mm] | Zone of inhibition (Aspergillus niger) [mm] | further results |
| --- | --- | --- | --- | --- | --- | --- |
| CSc1sc(-c2nnc(SC)n2-c2ccc([N+](=O)[O-])cc2)c2c1C(=O)CCC2 | 21 | 18 | 24 |  |  | Zone of inhibition (Bacillus cereus): 12 mm; Zone of inhibition (Pseudomonas aeruginosa): 14 mm |
| CCCCn1c(SC)nnc1-c1sc(SC)c2c1CCCC2=O | 16 | 17 | 26 |  |  | Zone of inhibition (Bacillus cereus): 16 mm |
| CSc1sc(-c2nnc(S)n2-c2ccc([N+](=O)[O-])cc2)c2c1C(=O)CCC2 | 23 | 18 | 25 |  |  | Zone of inhibition (Pseudomonas aeruginosa): 14 mm |
| COc1ccc(-n2c(S)nnc2-c2sc(SC)c3c2CCCC3=O)cc1 | 11 |  |  |  |  |  |
| C[C@@H]1[C@H](O)[C@@H](C)/C=C/C=C/C=C/C=C/C=C/C=C/C=C/[C@H](O[C@@H]2O[C@H](C)[C@@H](O)[C@H](N)[C@@H]2O)C[C@@H]2O[C@](O)(C[C@@H](O)C[C@@H](O)[C@H](O)CC[C@@H](O)C[C@@H](O)CC(=O)O[C@H]1C)C[C@H](O)[C@H]2C(=O)O [AMPHOTERICIN B] |  |  |  | 22 | 22 |  |
| CNc1nnc(-c2sc(SC)c3c2CCCC3=O)s1 | 28 |  |  | 12 | 11 |  |
| O=C1CN(/N=C/c2ccc([N+](=O)[O-])o2)C(=O)N1 [NITROFURANTOIN] | 18 | 21 |  |  |  | Zone of inhibition (Bacillus cereus): 20 mm; Zone of inhibition (Pseudomonas aeruginosa): 21 mm |
| CCCCn1c(S)nnc1-c1sc(SC)c2c1CCCC2=O | 14 | 17 | 26 |  |  |  |
| CSc1sc(-c2nnc(Nc3ccc([N+](=O)[O-])cc3)s2)c2c1C(=O)CCC2 | 33 |  |  | 14 | 10 |  |
| CSc1sc(-c2nnc(NC3CCCCC3)s2)c2c1C(=O)CCC2 |  |  |  |  | 12 |  |
| CCCCNc1nnc(-c2sc(SC)c3c2CCCC3=O)s1 | 22 |  |  | 11 | 9 |  |
| GENTAMICIN |  |  |  |  |  | inhibition zone (IZ) (Bacillus cereus): 28 mm; inhibition zone (IZ) (Bacillus subtilis): 30 mm; inhibition zone (IZ) [1]: 20 mm |
| CCNc1nnc(-c2sc(SC)c3c2CCCC3=O)s1 | 20 |  |  | 13 | 8 |  |
